The values that follow come from patent US8394391B2, “Drug delivery vehicle that mimics viral properties” (University of Utah Research Foundation, priority 2007, dated 2013).

What all share (format): cell-based, human
One data set deals with A2780 cells. The data set can be described thus: MTT cell cytotoxicity, A2780 cells. To be noted: drug-sensitive A2780; DOX equivalent 5 μg/ml; 48 hours; pH 7.4. As to the method:
(§1) A2780 and A2780/AD cells suspended in RPMI 1640 medium (200 μl) were seeded in a 96-well plate and cultured for 24 hours before testing. Free DOX (5 μg/ml) or equivalent DOX-loaded samples (virogels and control NPs) were added to the medium-removed 96-well plate for cell cytotoxicity tests. The pH of the culture medium was adjusted to pH 7.4 or pH 6.8 for 48 hours during the test, as described in A. Patchornik et al., supra. Cell cytotoxicity was measured using the tetrazolium salt MTT assay. E. S. Lee, K. Na & Y. H. Bae, 5 Nano Lett. 325-329 (2005); E. S. Lee, K. Na & Y. H. Bae, 103 J. Control. Release 405-418 (2005).

Data set [1] relates to A2780/AD cells. The data set can be described thus: MTT cell cytotoxicity, drug-resistant A2780/AD cells. To be noted: DOX equivalent 5 μg/ml, 48 hours, pH 7.4. As to the method:
as §1

In data set [2] the test system is A2780/AD cells. The data set can be described thus: Migration to neighboring cells in co-culture (confocal slice images). The conditions noted are these: for secondary infection of co-cultured untreated cells: 20 hours co-culture. As to the method:
Experiments were conducted to verify migration of virogels to neighboring cells. Cells grown on glass slide fragments (“plates”) (1×1 cm) were pre-treated with free DOX (10 μg/ml) or equivalent DOX-loaded virogels or NPs (controls), E. S. Lee, K. Na & Y. H. Bae, Polymeric micelle for tumor pH and folate-mediated targeting, 91 J. Control. Release 103-113 (2003)) for 4 hours. These pretreated cells (A cells) were washed with PBS (pH 7.4) and co-cultured with fresh cells (B-0 cells) on new glass slide fragments for 20 hours in fresh culture medium. Co-culturing was carried out by placing a plate containing A cells and a plate containing B-0 cells next to each other, but separated by 1 mm, in a culture dish such that the A cells and B-0 cells continuously shared fresh culture medium. The A cells served as a potential source for migration of virogels, and the B-0 cells were a potential site for secondary virogel infection.
After the B-0 cells were co-cultured with A cells for 20 hours, such B-0 cells were redesignated as B-1 cells. B-1 cells were then withdrawn from the culture dish and were co-cultured with fresh cells on new glass slide fragments for 20 hours in fresh culture medium. These fresh cells that had been co-cultured with B-1 cells were termed B-2 cells. These B-2 cells were then also withdrawn and co-cultured with fresh cells on new glass slide fragments for 20 hours in fresh culture medium. These fresh cells that had been co-cultured with B-2 cells were termed B-3 cells. Confocal slice images were obtained, as described above, for observing fluorescent DOX in cells. To evaluate the effect of DOX on virogel migration, blank virogels (50 μg/ml) were tested using the same procedure. FITC-labeling (Example 2) was used to visualize the blank virogels.

As to `COc1cccc2c1C(=O)c1c(O)c3c(c(O)c1C2=O)C[C@@](O)(C(=O)CO)C[C@@H]3O[C@H]1C[C@H](N)[C@H](O)[C@H](C)O1` [free DOX, doxorubicin], the viability (commonly a per cent measure of how many cells are alive, often set against a control) with A2780 cells is recorded as 30%; with A2780/AD cells [1], 80%. Also, the “distribution of fluorescence within primary treated cells (A cells)” value in the data set on A2780/AD cells [2] (4 hours pre-treatment, DOX 10 μg/ml equivalent (blank virogels 50 μg/ml, FITC)) is on record as “only limited fractions of DOX diffusing into cells”. In addition, in the data set on A2780/AD cells [2] (FIG. 7 legend, overall), the “migration from infected A2780/AD cells to untreated cells” value is listed as “no such migration”. Further, the “secondary infection of co-cultured untreated cells” value was “No further cell effects” in the data set on A2780/AD cells [2] (first cycle, B-1 cells); “No further cell effects” in the data set with A2780/AD cells [2] (second cycle, B-2 cells); “No further cell effects” in the data set on A2780/AD cells [2] (third cycle, B-3 cells).
